Experimental data published in patent publication US4183848A, “Analgesic polypeptide” (American Home Products Corporation, priority 1977, dated 1980).
Where a SMILES comes first, the peptide text is derived from it. [ ]: non-standard residue; d: D form. Aib = CC(C)(N)C(=O)O

Experiments:
rat tail flick test = rat tail flick test (method of D-Amour and Smith), analgesic activity; format: in vivo
From the text: The representative polypeptide of this invention Tyr-D-Ala-Gly-Phe-2-MeAla-NH2, gave the following results in the reference standard rat tail flick test: […]

[1] = peripheral administration; cited from earlier work
guinea pig ileum = conditions: cited from earlier work
mouse vas deferens = conditions: cited from earlier work
rats = conditions: injection in the brain ventricle in rats; fully reversible by naloxone; cited from earlier work
opiate receptor = conditions: brain homogenates; cited from earlier work
[2] = intracerebroventricular administration; cited from earlier work

Molecule: CC(=O)O.C[C@@H](NC(=O)[C@@H](N)Cc1ccc(O)cc1)C(=O)NCC(=O)N[C@@H](Cc1ccccc1)C(=O)NC(C)(C)C(N)=O [Tyr-D-Ala-Gly-Phe-2-MeAla-NH2, L-Tyrosyl-D-Alanylglycyl-L-Phenylalanyl-2-Methylalaninamide acetate] (H-Y[dA]GF[Aib]-NH2)
- No. showing analgesia/No. tested (rat tail flick test; intravenous 1.0 milligram/kilogram, 15 minutes after administration): 6/6
- No. showing analgesia/No. tested (rat tail flick test; intravenous 1.0 milligram/kilogram, 30 minutes after administration): 4/6
- No. showing analgesia/No. tested (rat tail flick test; intravenous 1.0 milligram/kilogram, 60 minutes after administration): 3/6
- No. showing analgesia/No. tested (rat tail flick test; intravenous 2.5 milligram/kilogram, 15 minutes after administration): 5/6
- No. showing analgesia/No. tested (rat tail flick test; intravenous 2.5 milligram/kilogram, 30 minutes after administration): 5/6
- No. showing analgesia/No. tested (rat tail flick test; intravenous 2.5 milligram/kilogram, 60 minutes after administration): 2/6
- No. showing analgesia/No. tested (rat tail flick test; intravenous 5.0 milligram/kilogram, 15 minutes after administration): 5/5
- No. showing analgesia/No. tested (rat tail flick test; intravenous 5.0 milligram/kilogram, 30 minutes after administration): 4/5
- No. showing analgesia/No. tested (rat tail flick test; intravenous 5.0 milligram/kilogram, 60 minutes after administration): 2/5
- No. showing analgesia/No. tested (rat tail flick test; intravenous .5 milligram/kilogram, 15 minutes after administration): 0/6
- No. showing analgesia/No. tested (rat tail flick test; intravenous .5 milligram/kilogram, 30 minutes after administration): 1/6
- No. showing analgesia/No. tested (rat tail flick test; intravenous .5 milligram/kilogram, 60 minutes after administration): 1/6
- No. showing analgesia/No. tested (rat tail flick test; subcutaneous 5.0 milligram/kilogram, 30 minutes after administration): 3/6
- No. showing analgesia/No. tested (rat tail flick test; subcutaneous 5.0 milligram/kilogram, 60 minutes after administration): 1/6
- No. showing analgesia/No. tested (rat tail flick test; subcutaneous 5.0 milligram/kilogram, 90 minutes after administration): 2/6
- No. showing analgesia/No. tested (rat tail flick test; subcutaneous 5.0 milligram/kilogram, 120 minutes after administration): 0/6
- No. showing analgesia/No. tested (rat tail flick test; subcutaneous 10.0 milligram/kilogram, 30 minutes after administration): 6/6
- No. showing analgesia/No. tested (rat tail flick test; subcutaneous 10.0 milligram/kilogram, 60 minutes after administration): 5/6
- No. showing analgesia/No. tested (rat tail flick test; subcutaneous 10.0 milligram/kilogram, 90 minutes after administration): 2/6
- No. showing analgesia/No. tested (rat tail flick test; subcutaneous 10.0 milligram/kilogram, 120 minutes after administration): 1/6

Molecule: H-Tyr-Gly-Gly-Phe-Leu-OH [leucine-enkephalin]
- activity when administered peripherally [1]: inactive
- block of electrically evoked contractions (guinea pig ileum): mimic the ability of morphine to block electrically evoked contractions
- block of electrically evoked contractions (mouse vas deferens): mimic the ability of morphine to block electrically evoked contractions
- analgesia (rats): profound analgesia
- inhibition of stereospecific receptor binding of 3H-naloxone (opiate receptor): inhibit

Molecule: Tyr-D-Ala-Gly-Phe-D-Leu
- activity when administered intracerebroventricularly [2]: activity

Molecule: H-Tyr-Gly-Gly-Phe-Met-OH [methionine-enkephalin]
- activity when administered peripherally [1]: inactive
- block of electrically evoked contractions (guinea pig ileum): mimic the ability of morphine to block electrically evoked contractions
- block of electrically evoked contractions (mouse vas deferens): mimic the ability of morphine to block electrically evoked contractions
- analgesia (rats): profound analgesia
- inhibition of stereospecific receptor binding of 3H-naloxone (opiate receptor): inhibit
